Assay results as given in the NIST ThermoML archive (doi:10.1021/je0202073).

Key:
[1] = Liquid; for mass density: 101.33 kPa, vibrating tube; for Normal boiling temperature: Ebulliometric method (Recirculating still); for vapor or sublimation pressure: ebulliometry
[2] = refractive index (Na D-line) (dimensionless); settings: 303.15 K, 101.33 kPa, Liquid
[3] = xn = mol fraction of the nth substance listed; settings: 101.3 kPa, Liquid
[4] = excess molar enthalpy (molar enthalpy of mixing); xn = mol fraction of the nth substance listed; settings: 101.3 kPa, Liquid, Calvet calorimetry

CCCC(=O)OCC [ethyl butanoate]
Settings	mass density [kg/m3]	refractive index
[1], 298.15 K	873.94	–
[2], Abbe refractometer	–	1.388

Settings	Normal boiling temperature [°C]
[1]	121.02

CCOC(C)=O [ethyl acetate]
Settings	mass density [kg/m3]	refractive index
[1], 298.15 K	894.44	–
[2], Abbe refractometer	–	1.3675

Settings	Normal boiling temperature [°C]
[1]	77.10

CCOC(=O)CC [ethyl propanoate]
Settings	mass density [kg/m3]	refractive index
[1], 298.15 K	883.95	–
[2], Abbe refractometer	–	1.3791

Settings	Normal boiling temperature [°C]
[1]	98.76

CCOC(=O)CC [ethyl propanoate] + CC(C)(C)O
Settings	excess molar enthalpy [kcal/mol]	excess molar volume [m3/mol]
[3], 303.15 K, x1 = 0.0345	–	7.6e-07
[3], 303.15 K, x1 = 0.0905	–	2.12e-06
[3], 303.15 K, x1 = 0.1495	–	3.31e-06
[3], 303.15 K, x1 = 0.1943	–	4.02e-06
[3], 303.15 K, x1 = 0.2497	–	4.82e-06
[3], 303.15 K, x1 = 0.2987	–	5.39e-06
[3], 303.15 K, x1 = 0.3496	–	5.77e-06
[3], 303.15 K, x1 = 0.3997	–	6.19e-06
[3], 303.15 K, x1 = 0.4466	–	6.39e-06
[3], 303.15 K, x1 = 0.4486	–	6.45e-06
[3], 303.15 K, x1 = 0.4998	–	6.48e-06
[3], 303.15 K, x1 = 0.5006	–	6.53e-06
[3], 303.15 K, x1 = 0.5163	–	6.52e-06
[3], 303.15 K, x1 = 0.5188	–	6.51e-06
[3], 303.15 K, x1 = 0.5569	–	6.47e-06
[3], 303.15 K, x1 = 0.5646	–	6.42e-06
[3], 303.15 K, x1 = 0.5964	–	6.31e-06
[3], 303.15 K, x1 = 0.6368	–	6.07e-06
[3], 303.15 K, x1 = 0.6458	–	6e-06
[3], 303.15 K, x1 = 0.7044	–	5.45e-06
[3], 303.15 K, x1 = 0.7533	–	4.87e-06
[3], 303.15 K, x1 = 0.8103	–	4.04e-06
[3], 303.15 K, x1 = 0.858	–	3.25e-06
[3], 303.15 K, x1 = 0.9096	–	2.24e-06
[3], 303.15 K, x1 = 0.9432	–	1.54e-06
[3], 318.15 K, x1 = 0.0694	–	1.85e-06
[3], 318.15 K, x1 = 0.1223	–	2.99e-06
[3], 318.15 K, x1 = 0.1759	–	3.87e-06
[3], 318.15 K, x1 = 0.2144	–	4.51e-06
[3], 318.15 K, x1 = 0.2746	–	5.29e-06
[3], 318.15 K, x1 = 0.3188	–	5.79e-06
[3], 318.15 K, x1 = 0.3648	–	6.16e-06
[3], 318.15 K, x1 = 0.4303	–	6.43e-06
[3], 318.15 K, x1 = 0.4669	–	6.5e-06
[3], 318.15 K, x1 = 0.5429	–	6.53e-06
[3], 318.15 K, x1 = 0.596	–	6.43e-06
[3], 318.15 K, x1 = 0.6662	–	6.05e-06
[3], 318.15 K, x1 = 0.7319	–	5.43e-06
[3], 318.15 K, x1 = 0.8088	–	4.45e-06
[3], 318.15 K, x1 = 0.8557	–	3.75e-06
[3], 318.15 K, x1 = 0.9183	–	2.28e-06
[4], 299.15 K, x1 = 0.0555	0.0801	–
[4], 299.15 K, x1 = 0.1332	0.183	–
[4], 299.15 K, x1 = 0.2151	0.271	–
[4], 299.15 K, x1 = 0.2979	0.346	–
[4], 299.15 K, x1 = 0.3767	0.397	–
[4], 299.15 K, x1 = 0.4164	0.417	–
[4], 299.15 K, x1 = 0.4497	0.428	–
[4], 299.15 K, x1 = 0.477	0.432	–
[4], 299.15 K, x1 = 0.5513	0.43	–
[4], 299.15 K, x1 = 0.6351	0.412	–
[4], 299.15 K, x1 = 0.73	0.354	–
[4], 299.15 K, x1 = 0.8294	0.257	–
[4], 299.15 K, x1 = 0.9242	0.132	–
[4], 318.15 K, x1 = 0.051	0.0699	–
[4], 318.15 K, x1 = 0.1094	0.14	–
[4], 318.15 K, x1 = 0.1681	0.209	–
[4], 318.15 K, x1 = 0.2276	0.271	–
[4], 318.15 K, x1 = 0.2892	0.328	–
[4], 318.15 K, x1 = 0.3477	0.367	–
[4], 318.15 K, x1 = 0.4028	0.395	–
[4], 318.15 K, x1 = 0.4347	0.41	–
[4], 318.15 K, x1 = 0.4528	0.415	–
[4], 318.15 K, x1 = 0.4786	0.424	–
[4], 318.15 K, x1 = 0.5297	0.425	–
[4], 318.15 K, x1 = 0.5872	0.419	–
[4], 318.15 K, x1 = 0.6499	0.398	–
[4], 318.15 K, x1 = 0.7164	0.36	–
[4], 318.15 K, x1 = 0.7897	0.3	–
[4], 318.15 K, x1 = 0.8641	0.217	–
[4], 318.15 K, x1 = 0.9381	0.114	–

CC(C)(C)O [2-methylpropan-2-ol]
Settings	mass density [kg/m3]	refractive index	vapor or sublimation pressure [kPa]
[1], 303.15 K	775.37	–	–
[1], 332.3 K	–	–	37.4
[1], 333.03 K	–	–	38.69
[1], 333.45 K	–	–	39.34
[1], 334.6 K	–	–	41.37
[1], 335.29 K	–	–	42.93
[1], 335.87 K	–	–	43.85
[1], 336.43 K	–	–	45.01
[1], 337.17 K	–	–	46.69
[1], 337.8 K	–	–	48.06
[1], 338.37 K	–	–	49.27
[1], 338.86 K	–	–	50.27
[1], 339.5 K	–	–	51.81
[1], 340.08 K	–	–	53.17
[1], 340.59 K	–	–	54.25
[1], 341.17 K	–	–	55.83
[1], 341.63 K	–	–	56.78
[1], 342.18 K	–	–	58.37
[1], 342.68 K	–	–	59.61
[1], 343.13 K	–	–	60.61
[1], 343.7 K	–	–	62.3
[1], 344.13 K	–	–	63.27
[1], 344.68 K	–	–	64.99
[1], 345.06 K	–	–	65.81
[1], 345.49 K	–	–	67.05
[1], 346.11 K	–	–	69.05
[1], 346.51 K	–	–	70.21
[1], 346.83 K	–	–	71.11
[1], 347.28 K	–	–	72.45
[1], 347.68 K	–	–	73.43
[1], 348.2 K	–	–	75.35
[1], 348.54 K	–	–	76.17
[1], 348.9 K	–	–	77.42
[1], 349.34 K	–	–	78.76
[1], 349.74 K	–	–	80.07
[1], 350.1 K	–	–	81.3
[1], 350.53 K	–	–	82.71
[1], 350.9 K	–	–	83.96
[1], 351.33 K	–	–	85.66
[1], 351.67 K	–	–	86.64
[1], 352.05 K	–	–	88.15
[1], 352.45 K	–	–	89.39
[1], 352.8 K	–	–	90.67
[1], 353.13 K	–	–	92.07
[1], 353.5 K	–	–	93.39
[1], 353.81 K	–	–	94.63
[1], 354.18 K	–	–	95.95
[1], 354.51 K	–	–	97.04
[1], 354.85 K	–	–	98.36
[1], 355.23 K	–	–	100.07
[1], 355.5 K	–	–	100.88
[1], 355.58 K	–	–	101.32
[1], 355.83 K	–	–	102.22
[1], 356.22 K	–	–	103.92
[1], 356.52 K	–	–	105.27
[1], 356.86 K	–	–	106.62
[1], 357.15 K	–	–	107.71
[1], 357.45 K	–	–	109.12
[1], 357.77 K	–	–	110.47
[1], 358.06 K	–	–	111.51
[1], 358.35 K	–	–	112.83
[1], 358.68 K	–	–	114.36
[1], 358.96 K	–	–	115.48
[1], 359.27 K	–	–	117
[1], 359.84 K	–	–	119.53
[1], 360.13 K	–	–	120.87
[1], 360.46 K	–	–	122.36
[1], 360.64 K	–	–	123.08
[1], 360.97 K	–	–	124.73
[1], 361.26 K	–	–	126.15
[1], 361.47 K	–	–	126.96
[1], 361.73 K	–	–	128.2
[1], 362.02 K	–	–	129.63
[1], 362.54 K	–	–	132.15
[1], 362.75 K	–	–	133.36
[1], 363.03 K	–	–	134.71
[1], 363.08 K	–	–	134.81
[1], 363.56 K	–	–	137.4
[1], 363.82 K	–	–	138.8
[1], 364.09 K	–	–	140.03
[1], 364.33 K	–	–	141.29
[1], 364.66 K	–	–	142.96
[1], 365.09 K	–	–	145.34
[1], 365.27 K	–	–	146.36
[1], 365.62 K	–	–	148.18
[1], 366.1 K	–	–	150.66
[1], 366.51 K	–	–	153.08
[1], 366.81 K	–	–	154.69
[1], 367.08 K	–	–	156.16
[1], 367.49 K	–	–	158.58
[1], 367.83 K	–	–	160.39
[1], 368.23 K	–	–	162.82
[2], Standard Abbe refractometry	–	1.382	–

CCOC=O [ethyl methanoate]
Settings	mass density [kg/m3]	refractive index
[1], 298.15 K	914.53	–
[2], Abbe refractometer	–	1.355

Settings	Normal boiling temperature [°C]
[1]	54.14
